Reference: article PMC11239673, “Structural basis for the bi-specificity of USP25 and USP28 inhibitors” (EMBO Reports, 2024)
Substitutions are numbered along the chain they refer to. “And” between values parts separate entries of the source, which are not always exact repeats. Identical values can stand only once. Like-named read-outs stand apart in the source and are kept apart here.

Tests used:
Assay type in all cases: biochemical
[1] = biological target: T1, USP28Δtip H261A (Homo sapiens, UniProt Q96RU2, H261A/INS458SGSG); test: Ub-Rho110 dose–response assay, USP28Δtip H261A; conditions: for IC50: USP28 - H261A
T1 sequence (Q96RU2 with tags, fused parts or gaps H261A/INS458SGSG): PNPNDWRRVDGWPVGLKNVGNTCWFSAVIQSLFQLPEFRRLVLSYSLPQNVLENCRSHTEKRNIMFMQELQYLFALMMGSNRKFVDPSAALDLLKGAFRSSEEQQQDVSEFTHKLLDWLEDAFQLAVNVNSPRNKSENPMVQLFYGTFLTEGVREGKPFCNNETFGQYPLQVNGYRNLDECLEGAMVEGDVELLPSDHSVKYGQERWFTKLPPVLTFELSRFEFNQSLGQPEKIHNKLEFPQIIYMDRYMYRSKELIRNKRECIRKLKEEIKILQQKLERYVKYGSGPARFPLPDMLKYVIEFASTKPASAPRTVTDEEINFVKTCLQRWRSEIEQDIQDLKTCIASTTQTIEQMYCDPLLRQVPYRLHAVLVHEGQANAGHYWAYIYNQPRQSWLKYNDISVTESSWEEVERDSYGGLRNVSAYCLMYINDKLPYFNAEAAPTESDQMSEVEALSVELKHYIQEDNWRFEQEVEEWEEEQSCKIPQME

[2] = biological target: T2, USP28Δtip L264F (Homo sapiens, UniProt Q96RU2, INS458SGSG/L264F); test: Ub-Rho110 dose–response assay, USP28Δtip L264F; conditions: for IC50: USP28 - L264F
T2 sequence (Q96RU2 with tags, fused parts or gaps L264F/INS458SGSG): T1 sequence (Q96RU2 with tags, fused parts or gaps H261A/INS458SGSG)

[3] = biological target: T3, USP28Δtip D265S (Homo sapiens, UniProt Q96RU2, D265S/INS458SGSG); test: Ub-Rho110 dose–response assay, USP28Δtip D265S; conditions: for IC50: USP28 - D265S
T3 sequence (Q96RU2 with tags, fused parts or gaps D265S/INS458SGSG): T1 sequence (Q96RU2 with tags, fused parts or gaps H261A/INS458SGSG)

[4] = biological target: T4, USP25Δtip WT (Homo sapiens, UniProt Q9UHP3, A536G/DEL465-477/DEL482-535/P478G/P537S); test: Ub-Rho110 dose–response assay, USP25Δtip wt; conditions: single replicates
T4 construct: 6xHis or thioredoxin-6xHis (N, cleaved yes); made in house; host or cells: E. coli BL21star (DE3)
T4 sequence (Q9UHP3 with tags, fused parts or gaps DEL465-477/P478G/DEL482-535/A536G/P537S limits assumed): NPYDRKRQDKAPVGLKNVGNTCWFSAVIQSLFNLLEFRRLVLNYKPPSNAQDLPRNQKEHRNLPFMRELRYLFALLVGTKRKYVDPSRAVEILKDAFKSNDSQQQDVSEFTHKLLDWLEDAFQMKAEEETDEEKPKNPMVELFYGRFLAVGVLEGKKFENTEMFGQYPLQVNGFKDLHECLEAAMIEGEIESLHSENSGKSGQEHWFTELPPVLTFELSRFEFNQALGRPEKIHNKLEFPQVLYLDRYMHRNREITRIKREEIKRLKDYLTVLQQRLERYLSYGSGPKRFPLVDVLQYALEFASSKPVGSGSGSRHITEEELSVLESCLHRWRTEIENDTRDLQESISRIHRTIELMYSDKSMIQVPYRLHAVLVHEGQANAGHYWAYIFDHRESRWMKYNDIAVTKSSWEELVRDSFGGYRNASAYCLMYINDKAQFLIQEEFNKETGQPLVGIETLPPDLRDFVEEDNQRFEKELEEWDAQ

[5] = biological target: T5, USP25Δtip D272S (Homo sapiens, UniProt Q9UHP3, D272S/DEL465-537/INS464GSGSGS); test: Ub-Rho110 dose–response assay, USP25Δtip D272S
T5 construct: 6xHis or thioredoxin-6xHis (N, cleaved yes); made in house; host or cells: E. coli BL21star (DE3)
T5 sequence (Q9UHP3 with tags, fused parts or gaps D272S/DEL465-477/P478G/DEL482-535/A536G/P537S limits assumed): T4 sequence (Q9UHP3 with tags, fused parts or gaps DEL465-477/P478G/DEL482-535/A536G/P537S limits assumed) with D116S

[6] = biological target: T6, USP25Δtip Q322A (Homo sapiens, UniProt Q9UHP3, DEL465-537/INS464GSGSGS/Q322A); test: Ub-Rho110 dose–response assay, USP25Δtip Q322A
T6 construct: 6xHis or thioredoxin-6xHis (N, cleaved yes); made in house; host or cells: E. coli BL21star (DE3)
T6 sequence (Q9UHP3 with tags, fused parts or gaps Q322A/DEL465-477/P478G/DEL482-535/A536G/P537S limits assumed): T4 sequence (Q9UHP3 with tags, fused parts or gaps DEL465-477/P478G/DEL482-535/A536G/P537S limits assumed) with Q166A

[7] = mean of replicates, read-out: IC50, mean and SD
[8] = single replicates, read-out: IC50 of each replicate curve (unlabelled line above mean and SD)
[9] = read-out: relative inhibition [%] - USP28 - H261A
[10] = read-out: relative inhibition [%] - USP28 - L264F
[11] = read-out: relative inhibition [%] - USP28 - D265S

Cc1ccc2c(N)c(C(=O)NC3CCc4cc(N5CC6CCC(C5)N6)ccc4C3)sc2n1 (stereo not shown) [FT206]
t-test vs. USP28 WT control - H261A [1]: 1.437E-02 | IC50 [1, 7]: 1370 nM | IC50 [1, 8]: 2480 nM and 1420 nM and 1160 nM and 1020 nM and 771 nM | inhibition at 11.11 µM [1, 9]: 80.8% | inhibition at 33.33 µM [1, 9]: 98.5% | inhibition at 100 µM [1, 9]: 107% | inhibition at […] [1, 9]: 74.8% | t-test vs. USP28 WT control - L264F [2]: 2.664E-04 | IC50 [2, 7]: 1270 nM | IC50 [2, 8]: 1620 nM and 1310 nM and 1610 nM and 793 nM and 1120 nM and 1150 nM | inhibition at 11.11 µM [2, 10]: 90.1% | inhibition at 33.33 µM [2, 10]: 95.6% | inhibition at 100 µM [2, 10]: 97.8% | inhibition at […] [2, 10]: 74.2% and 44.5% | t-test vs. USP28 WT control - D265S [3]: 4.502E-03 | IC50 [3, 7]: 310 nM | IC50 [3, 8]: 288 nM and 267 nM and 284 nM and 266 nM and 437 nM | inhibition at 11.11 µM [3, 11]: 99.7% | inhibition at 33.33 µM [3, 11]: 100% | inhibition at 100 µM [3, 11]: 101% | inhibition at […] [3, 11]: 97.8% and 94.4% and 33.5% and 30.9% | inhibition at 11.11 µM ([4]; read-out: relative inhibition [%] - USP25 - WT, inhibitor 11.11 µM): 91.9% | inhibition at 33.33 µM ([4]; read-out: relative inhibition [%] - USP25 - WT, inhibitor 33.33 µM): 99% | inhibition at 100 µM ([4]; read-out: relative inhibition [%] - USP25 - WT, inhibitor 100.00 µM): 100% | t-test vs. USP25 WT control - D272S ([5]; p value, inhibitor IC50 on USP25 D272S compared with USP25 WT): 3.650E-02 | inhibition at 33.33 µM ([5]; read-out: relative inhibition [%] - USP25 - D272S, inhibitor 33.33 µM, single replicates): 87.3% | inhibition at 100 µM ([5]; read-out: relative inhibition [%] - USP25 - D272S, inhibitor 100.00 µM, single replicates): 95.2% | inhibition at 100 µM ([6]; inhibitor 100.00 µM, single replicates, read-out: relative inhibition [%] - USP25 - Q322A): 94% | t-test vs. USP25 WT control - Q322A ([6]; p value, inhibitor IC50 on USP25 Q322A compared with USP25 WT): 8.787E-03 | inhibition at 11.11 µM ([6]; read-out: relative inhibition [%] - USP25 - Q322A, inhibitor 11.11 µM, single replicates): 85.2% | inhibition at 33.33 µM ([6]; read-out: relative inhibition [%] - USP25 - Q322A, inhibitor 33.33 µM, single replicates): 88.7%
